In ChEMBL document CHEMBL1201862, “PubChem BioAssay data set” (2004):
Activity calls are given as the source filed them.

What was measured:
[1] = target: Potassium channel subfamily K member 9 (Homo sapiens, UniProt Q9NPC2); experiment: TASK3 (KCNK9) channel inhibitors, thallium flux, SAR follow-up, selectivity assay for TASK1 inhibitor project, cell-based, FluxOR thallium flux, concentration-response (AID 652211); type: functional;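 further: potency is for inhibitors of the channel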
[2] = target: Potassium channel subfamily K member 3 (Homo sapiens, UniProt O14649); experiment: TASK1 (KCNK3) potassium channel inhibitors, SAR follow-up, CHO cells, FluxOR thallium flux (AID 652212); type: functional
[3] = target: Endoplasmic reticulum aminopeptidase 1 (Homo sapiens, UniProt Q9NZ08); experiment: ERAP1 aminopeptidase inhibitors, dose response, biochemical, cherry-pick, set 2, plate reader (AID 743314)
fMet-Leu-Phe receptor = fMet-Leu-Phe receptor (Homo sapiens, UniProt P21462); experiment: FPR ligands, dose response (AID 519); type: functional
[4] = target: T1, Rac GTPase-activating protein 1 (Homo sapiens, UniProt Q9H0H5); experiment: MgcRacGAP GTPase-activating activity inhibitors, confirmation, biochemical, ADP Hunter fluorescence, primary and confirmatory (AID 624330); type: functional
T1 sequence (Q9H0H5 whole entry): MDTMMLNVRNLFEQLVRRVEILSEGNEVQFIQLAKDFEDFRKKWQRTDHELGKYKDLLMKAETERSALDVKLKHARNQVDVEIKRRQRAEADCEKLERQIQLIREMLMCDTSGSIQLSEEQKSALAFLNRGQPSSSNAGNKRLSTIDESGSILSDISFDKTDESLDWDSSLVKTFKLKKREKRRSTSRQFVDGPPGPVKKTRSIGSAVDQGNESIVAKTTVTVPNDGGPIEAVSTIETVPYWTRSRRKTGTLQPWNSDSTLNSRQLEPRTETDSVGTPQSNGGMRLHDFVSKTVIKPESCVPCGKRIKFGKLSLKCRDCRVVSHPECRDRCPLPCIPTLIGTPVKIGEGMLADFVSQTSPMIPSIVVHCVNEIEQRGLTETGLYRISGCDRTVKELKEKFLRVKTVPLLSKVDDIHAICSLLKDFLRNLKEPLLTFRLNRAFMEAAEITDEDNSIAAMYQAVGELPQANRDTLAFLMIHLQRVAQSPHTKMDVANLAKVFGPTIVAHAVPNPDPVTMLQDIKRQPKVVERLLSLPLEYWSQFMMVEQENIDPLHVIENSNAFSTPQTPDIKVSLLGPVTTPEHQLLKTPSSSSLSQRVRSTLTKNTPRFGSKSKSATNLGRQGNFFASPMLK

[5] = Shn3 3'UTR reporter inhibitors, dose response, cell-based, Clone20 osteoblasts, firefly luciferase, cherry-picked (AID 624132); type: functional;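 further: firefly luciferase luminescence from reporter carrying the Shn3 3'UTR in osteoblasts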
Protein Wnt-3a = Protein Wnt-3a (Mus musculus, UniProt P27467); experiment: Wnt3a-driven reporter signaling inhibition, dose response, selectivity assay for Gli-SUFU antagonist project, Wnt-LIGHT cells, luminescence (AID 651570); type: functional; conditions: read-out: IC50_Mean;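 further: Wnt-LIGHT reporter cells stimulated with conditioned medium from Wnt3a-producing cells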
[6] = reduction of endogenous Shn3 mRNA, dose response, qPCR, Clone20 cells, cherry-pick (AID 743415); type: functional, cell-based
HEK293 [7] = experiment: cells; type: functional, cell-based; conditions: Homo sapiens
HEK293 [8] = experiment: NOD1 signaling inhibitors, primary screen, cell-based, luminescence, uHTS (AID 1578); type: functional; conditions: Homo sapiens
[9] = cytotoxicity toward NIH3T3 fibroblasts, dose response, counter-screen, cell-based, ATP luminescence, mouse fibroblasts (AID 2010); type: functional;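 further: cells exposed to compound for about 90 hours before reading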
HEK293 [10] = experiment: cells; type: functional, cell-based; conditions: Homo sapiens; remark: listed apart in the source
HEK293 [11] = experiment: cells; type: functional, cell-based; conditions: Homo sapiens; remark: listed apart in the source
[12] = target: Nucleotide-binding oligomerization domain-containing protein 2 (Homo sapiens, UniProt Q9HC29); experiment: NOD2 signaling inhibitors, cell-based, luminescence, uHTS, HEK293 (AID 1566); type: functional
[13] = target: T2, Corticotropin-releasing factor receptor 2/Corticotropin-releasing factor-binding protein (Homo sapiens, UniProt P24387+Q13324); experiment: activators of CRF receptor 2 with binding protein – uHTS hits, confirmation (AID 602473); type: functional; conditions: read-out: EC50_Mean
T2 sequence (Q13324 whole entry): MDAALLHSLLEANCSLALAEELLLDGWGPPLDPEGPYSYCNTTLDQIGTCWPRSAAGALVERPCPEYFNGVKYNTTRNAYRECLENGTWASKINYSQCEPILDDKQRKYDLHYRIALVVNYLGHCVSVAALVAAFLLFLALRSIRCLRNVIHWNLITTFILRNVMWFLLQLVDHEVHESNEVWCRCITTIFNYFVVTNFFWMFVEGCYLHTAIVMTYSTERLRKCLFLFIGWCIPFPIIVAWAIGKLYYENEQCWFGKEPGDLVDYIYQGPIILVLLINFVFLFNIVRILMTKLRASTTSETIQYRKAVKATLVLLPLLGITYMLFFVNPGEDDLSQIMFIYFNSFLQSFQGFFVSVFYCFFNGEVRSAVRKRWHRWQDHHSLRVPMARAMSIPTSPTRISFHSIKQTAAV
T2 sequence (P24387 whole entry): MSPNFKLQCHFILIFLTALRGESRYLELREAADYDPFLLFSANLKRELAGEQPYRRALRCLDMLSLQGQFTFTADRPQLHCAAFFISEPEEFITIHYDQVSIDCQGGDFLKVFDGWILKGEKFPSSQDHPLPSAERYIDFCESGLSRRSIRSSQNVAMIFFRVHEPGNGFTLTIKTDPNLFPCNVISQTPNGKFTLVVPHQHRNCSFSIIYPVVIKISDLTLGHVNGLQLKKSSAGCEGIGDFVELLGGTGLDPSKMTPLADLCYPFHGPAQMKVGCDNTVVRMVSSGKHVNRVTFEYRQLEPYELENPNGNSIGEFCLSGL

INS1 = experiment: beta cell apoptosis inhibitors, cytokine rescue, dose response, luminescence, retest (AID 449756); type: functional, cell-based; conditions: Rattus norvegicus;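 further: cell death triggered by IL-1 beta plus TNF-alpha plus IFN-gamma mixture; protective hits raise ATP signal compared with cytokine alone wells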
[14] = reduction of Shn3 3'UTR firefly luciferase signal, dose response, Schnurri-3 inhibitor project, cell-based, Clone20 osteoblasts, cherry-pick, set 2 (AID 720490); type: functional;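 further: actives lower the luminescence signal as inhibitors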
HEK293 [15] = experiment: NOD2 signaling inhibitors in MDP-stimulated cells, cell-based, uHTS, luminescence (AID 2001); type: functional; conditions: Homo sapiens
CAAX prenyl protease 2 = target: T3, CAAX prenyl protease 2 (Saccharomyces cerevisiae S288c, UniProt Q03530); type: biochemical
T3 sequence (Q03530 whole entry): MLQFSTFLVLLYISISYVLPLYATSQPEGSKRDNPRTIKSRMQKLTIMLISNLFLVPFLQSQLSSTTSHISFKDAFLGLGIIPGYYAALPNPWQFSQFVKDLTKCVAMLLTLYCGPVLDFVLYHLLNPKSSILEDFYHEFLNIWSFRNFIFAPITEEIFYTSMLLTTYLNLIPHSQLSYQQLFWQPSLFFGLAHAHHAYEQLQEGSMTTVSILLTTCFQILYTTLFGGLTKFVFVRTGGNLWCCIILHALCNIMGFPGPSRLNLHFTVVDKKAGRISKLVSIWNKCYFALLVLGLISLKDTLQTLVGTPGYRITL

[16] = inhibitors of intracellular T. cruzi replication, confirmation, NIH3T3 host cells, beta-gal luminescence (AID 2044); type: functional, cell-based;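 further: intracellular parasites grown in NIH/3T3 mouse fibroblasts as host cells; luminescent beta-galactosidase reporter signal from transgenic T. cruzi replicating inside host cells; inhibitors lower the luminescence signal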
[17] = target: FAD-linked sulfhydryl oxidase ALR (Homo sapiens, UniProt P55789); experiment: inhibitors of human ALR sulfhydryl oxidase, dose response, biochemical, H2O2 detection, luminescence, cherry-pick (AID 493248)
[18] = target: T4, Methionyl-tRNA synthetase, putative (Trypanosoma brucei brucei, UniProt Q38C91); type: functional, Trypanosoma brucei brucei strain 927/4 GUTat10.1
T4 sequence (Q38C91 whole entry): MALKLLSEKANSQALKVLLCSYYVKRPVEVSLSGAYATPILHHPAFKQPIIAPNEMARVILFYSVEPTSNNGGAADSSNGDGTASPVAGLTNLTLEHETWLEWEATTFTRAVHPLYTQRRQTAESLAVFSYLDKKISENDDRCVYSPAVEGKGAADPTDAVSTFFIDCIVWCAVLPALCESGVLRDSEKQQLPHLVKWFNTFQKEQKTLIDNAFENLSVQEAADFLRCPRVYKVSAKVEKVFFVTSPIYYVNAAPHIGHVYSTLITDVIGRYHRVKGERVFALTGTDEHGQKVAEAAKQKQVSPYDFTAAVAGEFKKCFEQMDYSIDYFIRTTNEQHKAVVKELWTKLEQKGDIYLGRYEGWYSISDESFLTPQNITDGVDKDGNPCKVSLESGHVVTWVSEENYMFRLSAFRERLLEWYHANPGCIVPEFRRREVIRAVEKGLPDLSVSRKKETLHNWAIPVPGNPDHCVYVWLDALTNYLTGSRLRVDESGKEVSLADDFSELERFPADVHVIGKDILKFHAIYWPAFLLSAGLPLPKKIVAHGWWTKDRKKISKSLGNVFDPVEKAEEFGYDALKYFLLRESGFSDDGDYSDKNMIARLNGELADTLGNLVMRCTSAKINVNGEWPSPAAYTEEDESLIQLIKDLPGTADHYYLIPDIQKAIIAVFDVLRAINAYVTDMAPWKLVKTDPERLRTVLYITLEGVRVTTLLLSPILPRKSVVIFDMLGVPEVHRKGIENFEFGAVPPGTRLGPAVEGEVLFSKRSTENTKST

[19] = target: T4, Methionyl-tRNA synthetase, putative; type: functional, Trypanosoma brucei brucei strain 927/4 GUTat10.1; remark: listed apart in the source
[20] = Counterscreen for inhibitors of Trypanosoma brucei methionyl tRNA synthetase (MetRS): Luminescence-based cell-based high throughput dose response assay to identify compounds that are cytotoxic to Jurkat human T lymphocyte cells.; type: functional
[21] = Late stage counterscreen for inhibitors of Trypanosoma brucei methionyl tRNA synthetase (MetRS): Luminescence-based cell-based high throughput dose response assay to identify compounds that are cytotoxic to Jurkat human T lymphocyte cells.; type: functional

Chain of Potassium channel subfamily K member 3 (O14649 whole entry): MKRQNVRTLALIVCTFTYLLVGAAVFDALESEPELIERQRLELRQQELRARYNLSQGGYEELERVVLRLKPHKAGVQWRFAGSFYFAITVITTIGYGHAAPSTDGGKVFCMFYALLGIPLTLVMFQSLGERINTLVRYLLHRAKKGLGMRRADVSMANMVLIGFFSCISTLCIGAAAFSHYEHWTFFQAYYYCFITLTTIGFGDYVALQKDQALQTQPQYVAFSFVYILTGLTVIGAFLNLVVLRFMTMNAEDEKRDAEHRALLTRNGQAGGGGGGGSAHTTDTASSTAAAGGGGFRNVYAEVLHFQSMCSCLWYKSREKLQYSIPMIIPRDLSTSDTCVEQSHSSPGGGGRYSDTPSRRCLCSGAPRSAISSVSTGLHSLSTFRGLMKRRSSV
Chain of Nucleotide-binding oligomerization domain-containing protein 2 (Q9HC29 whole entry, the tested form may be a part): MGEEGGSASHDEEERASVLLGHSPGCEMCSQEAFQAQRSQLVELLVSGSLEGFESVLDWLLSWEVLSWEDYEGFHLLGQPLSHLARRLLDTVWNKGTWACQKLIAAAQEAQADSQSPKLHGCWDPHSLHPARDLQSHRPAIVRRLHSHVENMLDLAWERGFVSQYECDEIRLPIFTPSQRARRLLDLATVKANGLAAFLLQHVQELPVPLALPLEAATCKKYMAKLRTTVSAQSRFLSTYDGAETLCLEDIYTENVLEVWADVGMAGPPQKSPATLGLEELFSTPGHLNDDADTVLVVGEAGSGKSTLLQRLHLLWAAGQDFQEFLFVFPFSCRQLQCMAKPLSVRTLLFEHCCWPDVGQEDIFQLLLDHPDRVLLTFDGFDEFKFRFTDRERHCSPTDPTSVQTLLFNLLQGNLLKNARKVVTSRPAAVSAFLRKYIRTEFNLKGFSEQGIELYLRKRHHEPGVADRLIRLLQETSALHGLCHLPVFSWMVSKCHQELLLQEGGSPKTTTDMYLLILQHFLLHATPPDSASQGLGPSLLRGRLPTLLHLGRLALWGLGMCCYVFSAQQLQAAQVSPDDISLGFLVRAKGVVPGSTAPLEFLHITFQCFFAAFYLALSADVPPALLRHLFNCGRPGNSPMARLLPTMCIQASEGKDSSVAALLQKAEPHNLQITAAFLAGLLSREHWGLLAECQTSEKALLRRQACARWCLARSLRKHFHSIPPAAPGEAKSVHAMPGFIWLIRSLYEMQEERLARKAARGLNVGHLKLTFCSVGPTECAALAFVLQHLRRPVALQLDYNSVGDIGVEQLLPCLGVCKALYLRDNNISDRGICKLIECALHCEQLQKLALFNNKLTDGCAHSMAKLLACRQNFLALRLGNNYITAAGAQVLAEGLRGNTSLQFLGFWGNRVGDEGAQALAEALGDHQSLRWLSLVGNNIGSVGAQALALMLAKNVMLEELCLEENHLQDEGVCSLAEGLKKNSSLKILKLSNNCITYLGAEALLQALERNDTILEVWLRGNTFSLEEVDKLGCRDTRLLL
Chain of Potassium channel subfamily K member 9 (Q9NPC2 whole entry): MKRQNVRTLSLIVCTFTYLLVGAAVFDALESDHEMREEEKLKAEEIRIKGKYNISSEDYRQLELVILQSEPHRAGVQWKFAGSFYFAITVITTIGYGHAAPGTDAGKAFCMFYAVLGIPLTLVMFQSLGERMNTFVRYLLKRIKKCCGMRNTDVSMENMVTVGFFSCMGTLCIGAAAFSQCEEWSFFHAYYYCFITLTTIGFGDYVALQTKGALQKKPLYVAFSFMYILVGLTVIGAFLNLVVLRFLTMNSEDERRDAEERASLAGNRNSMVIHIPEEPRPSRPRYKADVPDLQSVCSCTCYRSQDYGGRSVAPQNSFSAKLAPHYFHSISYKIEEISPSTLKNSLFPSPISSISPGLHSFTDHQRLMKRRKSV
Chain of FAD-linked sulfhydryl oxidase ALR (P55789 whole entry): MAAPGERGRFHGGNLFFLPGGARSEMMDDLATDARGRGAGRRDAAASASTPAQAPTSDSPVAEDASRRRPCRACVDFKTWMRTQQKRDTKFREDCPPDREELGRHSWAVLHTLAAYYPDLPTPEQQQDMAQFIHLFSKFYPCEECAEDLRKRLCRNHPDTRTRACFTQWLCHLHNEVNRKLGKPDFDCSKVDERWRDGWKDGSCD
Chain of Endoplasmic reticulum aminopeptidase 1 (Q9NZ08 whole entry): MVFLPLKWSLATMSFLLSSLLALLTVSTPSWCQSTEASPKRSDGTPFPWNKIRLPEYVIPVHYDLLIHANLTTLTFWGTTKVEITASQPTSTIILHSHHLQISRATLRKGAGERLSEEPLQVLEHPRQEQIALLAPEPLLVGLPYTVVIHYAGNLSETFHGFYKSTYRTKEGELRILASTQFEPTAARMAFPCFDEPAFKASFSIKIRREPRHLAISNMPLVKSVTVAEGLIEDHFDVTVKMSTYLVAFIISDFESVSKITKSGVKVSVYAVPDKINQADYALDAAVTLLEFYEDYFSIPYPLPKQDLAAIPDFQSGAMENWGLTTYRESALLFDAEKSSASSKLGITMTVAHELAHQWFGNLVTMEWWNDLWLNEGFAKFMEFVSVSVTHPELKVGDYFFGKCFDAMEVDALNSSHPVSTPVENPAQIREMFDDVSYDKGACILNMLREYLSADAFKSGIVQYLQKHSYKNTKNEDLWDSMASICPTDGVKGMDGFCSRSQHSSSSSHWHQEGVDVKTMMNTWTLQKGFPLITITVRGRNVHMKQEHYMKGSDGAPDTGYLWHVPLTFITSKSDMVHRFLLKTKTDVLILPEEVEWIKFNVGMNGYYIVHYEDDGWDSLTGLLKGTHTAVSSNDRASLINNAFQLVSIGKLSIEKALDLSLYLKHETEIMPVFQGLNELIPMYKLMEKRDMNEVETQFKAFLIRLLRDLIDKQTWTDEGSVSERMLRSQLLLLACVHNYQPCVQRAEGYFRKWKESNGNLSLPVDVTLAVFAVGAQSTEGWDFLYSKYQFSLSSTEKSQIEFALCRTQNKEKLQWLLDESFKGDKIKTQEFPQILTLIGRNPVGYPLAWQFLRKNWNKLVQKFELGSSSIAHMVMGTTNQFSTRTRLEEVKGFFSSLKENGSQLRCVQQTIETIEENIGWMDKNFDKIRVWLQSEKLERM
Chain of fMet-Leu-Phe receptor (P21462 whole entry): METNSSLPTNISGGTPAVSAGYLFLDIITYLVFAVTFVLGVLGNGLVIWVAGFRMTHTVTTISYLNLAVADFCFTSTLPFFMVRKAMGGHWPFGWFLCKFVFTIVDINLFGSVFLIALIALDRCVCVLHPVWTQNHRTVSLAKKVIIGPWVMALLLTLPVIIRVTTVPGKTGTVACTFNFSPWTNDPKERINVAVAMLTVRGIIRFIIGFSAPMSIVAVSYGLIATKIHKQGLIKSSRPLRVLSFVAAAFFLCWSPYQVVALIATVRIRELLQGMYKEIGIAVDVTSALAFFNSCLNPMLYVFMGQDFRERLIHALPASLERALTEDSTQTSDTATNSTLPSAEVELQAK
Chain of Protein Wnt-3a (P27467 whole entry): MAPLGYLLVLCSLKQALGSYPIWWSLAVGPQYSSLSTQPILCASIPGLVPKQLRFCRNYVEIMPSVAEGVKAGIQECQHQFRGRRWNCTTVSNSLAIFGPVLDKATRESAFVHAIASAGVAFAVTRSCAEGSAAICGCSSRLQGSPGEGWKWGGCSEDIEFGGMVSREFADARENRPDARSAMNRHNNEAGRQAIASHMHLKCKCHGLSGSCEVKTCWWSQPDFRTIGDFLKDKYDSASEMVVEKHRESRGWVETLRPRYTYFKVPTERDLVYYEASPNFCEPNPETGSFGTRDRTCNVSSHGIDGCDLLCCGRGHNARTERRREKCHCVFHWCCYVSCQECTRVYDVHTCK

With `COc1c(F)cccc1C(=O)Nc1cccc(NC(=O)c2cccc(C)c2)c1` the IC50 [1] was 0.37 µM (active) and the IC50 [2] was 0.013 µM (active).
In the case of `CCc1cc(=O)oc2c(CN3CCN(C)CC3)c(O)ccc12`, the AC50 [3] is reported as 7.3 µM (active).
For `CC(C)(C)CC(=O)Nc1ccc(Nc2ccccc2)cc1`, the Ki (fMet-Leu-Phe receptor) was > 66.7 µM (inactive) and the IC50 [4] was 88.6 µM (active).
In the case of `COc1ccccc1N1CCN(c2ncc(C(=O)N3CCN(c4cccc(Cl)c4)CC3)c3ccccc23)CC1`, the AC50 [5] is reported as 0.572 µM (active), the IC50 (Protein Wnt-3a) is reported as 1.47 µM (active) and the AC50 [6] is reported as 30 µM (active). The IC50 (HEK293 [7]) was 5.68 µM (active), the EC50 (HEK293 [8]) was 4.31 µM (active) and the EC50 [9] was > 30 µM (not active). The IC50 (HEK293 [10]) was > 20 µM (inactive), the IC50 (HEK293 [11]) was > 20 µM (inactive) and the EC50 [12] was 9.31 µM (active). For the same molecule, the EC50 [13] was > 53 µM (inactive), the AC50 (INS1) was 3.93 µM (active) and the AC50 [14] was 1.81 µM (active). The IC50 (HEK293 [15]) was 4.46 µM (active), the AC50 (CAAX prenyl protease 2) was 9.46 µM (active) and the EC50 [16] was 2.29 µM (active).
With `Oc1c(Cl)cc(Cl)cc1CNc1nc2ccccc2[nH]1` the AC50 [17] was 0.587 µM (active), the IC50 [18] was 0.661 µM (active) and the IC50 [19] was 0.488 µM (active). For the same molecule, the IC50 [20] was 83.3 µM (inactive) and the IC50 [21] was > 83.3 µM (inactive).
